Values after ≈ are worked out from the molar mass of the structure shown.
Experiments:
Vero CCL-81 cells [1] = assay: MTT cytotoxicity assay; type: cell-based; conditions: 48 h
Method: An MTT (3-[4,5-dimethylthiazol-2-yl]-2,5 diphenyl tetrazolium bromide) assay was used to measure the effects of the selected compounds on Vero CCL-81 cells to ascertain the cytotoxicity of the compounds (Njeru and Muema [2021]; El-Shehawy et al. [2023]). To summarize, Vero CCL-81 cells were seeded in 96-well plates with 1.0 × 10^4 cells per well in DMEM supplemented with 2% FBS at a density of 1.0 × 10^4 cells per well. In the following step, the plates were incubated at 37 °C with 5% CO2 for 24 h before they were collected. A dilution of 150 µL of compounds was added in quadruplicate to each well after the incubation, and the wells were kept at 37 °C with 5% CO2 for 48 h. After the PBS was added to each well, a final step was to add 30 µL of MTT, remove the supernatants, and wash with PBS twice. A 2 h incubation period was conducted after MTT addition, at 37 °C, using 5% CO2, and it was protected from light for 2 h. A 100 µL/well DMSO solution was added to the wells to dissolve the formazan crystals (El-Sewedy et al. [2023]). Positive controls (cells treated with a known cytotoxic agent) and negative controls (untreated cells) were included in each experiment and were in triplicate.

SARS-CoV-2 = type: cell-based
Vero CCL-81 cells [2] = assay: Dose-dependent assay (Chou-Talalay, CompuSyn) from MTT data; type: cell-based
Method: The compounds were analyzed using MTT assay data. By applying the Chou-Talalay method, the dose-dependent effect was calculated (Elwakeel et al. [2019]). This calculation was performed using CompuSyn software. The dose–effect curves were created for both single treatments, and the fraction affected (Fa) values were determined for each dose and corresponding effect as previously reported (El-Sewedy et al. [2023]). The dose-dependent assay was carried out in triplicate to guarantee reproducibility.

[3] = ABTS radical cation scavenging activity
Method: The activity of scavenging ABTS radical cation was assessed across various concentrations, and the outcomes were juxtaposed with those obtained from standard materials. The selected compounds and vitamin C were evaluated at corresponding concentrations, following the methodology outlined in a prior study (AlBalawi et al. [2023]). Using the absorbance reading at 734 nm, the percentage of ABTS radical cation scavenging activity was computed using the formula: %ABTSradicalcationscavengingactivity=1-AsampleAsampleAcontrolAcontrol×100TopofForm

[4] = Ferric reducing antioxidant power assay (FRAP)
Method: The FRAP assay is based on the reduction of ferric ions (Fe^3⁺) to ferrous ions (Fe^2⁺) in the presence of antioxidants. The reduced Fe^2⁺ forms a blue-colored complex with 2,4,6-tripyridyl-s-triazine (TPTZ), and the intensity of the color is directly proportional to the reducing power of the sample, which can be quantified spectrophotometrically. For the assay, an acetate buffer (300 mM, pH 3.6) is prepared by dissolving […] in 1 L of distilled water. The TPTZ solution (10 mM) is dissolved in 40 mM HCl, and the ferric chloride solution (FeCl₃, 20 mM) is prepared separately. The FRAP reagent is freshly prepared before the assay by mixing 10 parts acetate buffer, 1 part TPTZ solution, and 1 part FeCl₃ solution. This reagent is kept at 37 °C to ensure its stability during the reaction. For the sample preparation, different concentrations of samples were dissolved in methanol. Trolox, a well-known antioxidant, is used as the positive control and prepared at the same concentrations for comparison. To conduct the assay, 100 µL of each sample or Trolox solution is mixed with 3 mL of freshly prepared FRAP reagent in a 96-well plate or test tube. The mixtures are incubated at 37 °C for 30 min, allowing the antioxidants in the samples to reduce the Fe^3⁺ ions to Fe^2⁺. After incubation, the absorbance of the resulting blue-colored complex is measured at 593 nm using a UV–visible spectrophotometer. The FRAP value of each sample is calculated by comparing the absorbance to a standard curve generated using known concentrations of ferrous sulfate (FeSO₄). The antioxidant capacity is expressed as µmol Fe^2⁺ equivalents/g of the sample. The experiment included three separate readings for every measurement.

[5] = Cupric ion reducing antioxidant capacity assay (CUPRAC)
Method: The CUPRAC assay evaluates the ability of antioxidants to reduce cupric ions (Cu^2⁺) to cuprous ions (Cu^1⁺), forming a stable colored complex with neocuproine. For the assay, a CUPRAC reagent is prepared by mixing 10 mL of 10 mM copper(II) chloride (CuCl₂), 10 mL of 7.5 mM neocuproine, and 10 mL of ammonium acetate buffer (pH 7.0). […] Trolox is again used as the positive control and prepared at the same concentrations. For the assay, 1 mL of each sample concentration or Trolox is mixed with 1 mL of CUPRAC reagent in a 96-well plate or test tube. The reaction mixture is incubated at room temperature for 30 min to allow a complete reduction of Cu^2⁺ to Cu^1⁺. The absorbance is then measured at 450 nm using a UV–visible spectrophotometer. The antioxidant capacity is determined by comparing the absorbance to a Trolox standard curve, and the results were expressed as µmol Trolox equivalents/g of the sample. All measurements are performed in triplicate.

Compound: COc1cc(/C=C/C(=O)CC(=O)/C=C/c2ccc(O)c(OC)c2)ccc1O [Curcumin]
- IC50 (Vero CCL-81 cells [1]): 83.2 µg/mL (≈ 226 µM)
- effect on SARS-CoV-2 viral titer (SARS-CoV-2): reduced viral titer
- Dose at fraction affected (Fa) (Vero CCL-81 cells [2]; Fa 0.5, 48 h treatment): 9.421
- Dose at fraction affected (Fa) (Vero CCL-81 cells [2]; Fa 0.75, 48 h treatment): 20.7718
- Dose at fraction affected (Fa) (Vero CCL-81 cells [2]; Fa 0.9, 48 h treatment): 45.7973
- Dose at fraction affected (Fa) (Vero CCL-81 cells [2]; Fa 0.95, 48 h treatment): 78.4112
- Dose at fraction affected (Fa) (Vero CCL-81 cells [2]; Fa 0.97, 48 h treatment): 114.960

Compound: O=c1c(O)c(-c2ccc(O)c(O)c2)oc2cc(O)cc(O)c12 [Quercetin]
- ABTS ± SD ([3]; 10 µg/mL): 130.40 ± 4.50 μmol Trolox eq/g
- ABTS ± SD ([3]; 20 µg/mL): 210.10 ± 6.00 μmol Trolox eq/g
- ABTS ± SD ([3]; 40 µg/mL): 360.40 ± 8.00 μmol Trolox eq/g
- ABTS ± SD ([3]; 80 µg/mL): 620.20 ± 11.50 μmol Trolox eq/g
- ABTS ± SD ([3]; 100 µg/mL): 820.30 ± 14.00 μmol Trolox eq/g
- IC50 (Vero CCL-81 cells [1]): 55.2 µg/mL (≈ 183 µM)
- concentration to which antiviral properties were limited (SARS-CoV-2): 100 µg/mL
- effect on SARS-CoV-2 viral titer (SARS-CoV-2): no noticeable change in viral titer
- FRAP ± SD ([4]; 10 µg/mL): 120.30 ± 4.00 μmol Fe^2⁺ eq/g
- FRAP ± SD ([4]; 20 µg/mL): 200.15 ± 5.20 μmol Fe^2⁺ eq/g
- FRAP ± SD ([4]; 40 µg/mL): 350.45 ± 7.50 μmol Fe^2⁺ eq/g
- FRAP ± SD ([4]; 80 µg/mL): 600.55 ± 10.10 μmol Fe^2⁺ eq/g
- FRAP ± SD ([4]; 100 µg/mL): 800.45 ± 12.50 μmol Fe^2⁺ eq/g
- Dose at fraction affected (Fa) (Vero CCL-81 cells [2]; Fa 0.5, 48 h treatment): 12.0260
- Dose at fraction affected (Fa) (Vero CCL-81 cells [2]; Fa 0.75, 48 h treatment): 46.3852
- Dose at fraction affected (Fa) (Vero CCL-81 cells [2]; Fa 0.9, 48 h treatment): 178.911
- Dose at fraction affected (Fa) (Vero CCL-81 cells [2]; Fa 0.95, 48 h treatment): 448.103
- Dose at fraction affected (Fa) (Vero CCL-81 cells [2]; Fa 0.97, 48 h treatment): 861.173
- CUPRAC ± SD ([5]; 10 µg/mL): 115.25 ± 3.70 μmol Trolox eq/g
- CUPRAC ± SD ([5]; 20 µg/mL): 190.20 ± 5.00 μmol Trolox eq/g
- CUPRAC ± SD ([5]; 40 µg/mL): 340.30 ± 7.00 μmol Trolox eq/g
- CUPRAC ± SD ([5]; 80 µg/mL): 590.10 ± 9.50 μmol Trolox eq/g
- CUPRAC ± SD ([5]; 100 µg/mL): 780.55 ± 11.20 μmol Trolox eq/g

Compound: CCC(CC)COC(=O)[C@H](C)N[P@](=O)(OC[C@H]1O[C@@](C#N)(c2ccc3c(N)ncnn23)[C@H](O)[C@@H]1O)Oc1ccccc1 [RVD, Remdesivir, reference compound]
- decrease in SARS-CoV-2 viral titer (SARS-CoV-2): 100%

Compound: Cc1c(C)c2c(c(C)c1O)CCC(C)(C(=O)O)O2 (stereo not shown) [Trolox, reference compound]
- ABTS ± SD ([3]; 1000 µg/mL): 1300.00 ± 22.00 μmol Trolox eq/g
- FRAP ± SD ([4]; 1000 µg/mL): 1200.00 ± 20.00 μmol Fe^2⁺ eq/g
- CUPRAC ± SD ([5]; 1000 µg/mL): 1100.00 ± 17.50 μmol Trolox eq/g

Source: publication PMC11602940, “Assessing multi-target antiviral and antioxidant activities of natural compounds against SARS-CoV-2: an integrated in vitro and in silico study” (Bioresources and Bioprocessing, 2024)
